Tests used:
lambsquarters = experiment: Test C preemergence; assay type: in vivo, Chenopodium album; settings: for Plant response rating (scale of 0 to 100 where 0 is no effect and 100 is complete control): Lambsquarters, preemergence; for Lambsquarters plant response rating (0 to 100): Preemergence, visual rating after 13 to 15 d
Description: (§1) Seeds of plant species selected from blackgrass (Alopecurus myosuroides), ryegrass, Italian (Italian ryegrass, Lolium multiflorum), wheat (winter wheat, Triticum aestivum), galium (catchweed bedstraw, Galium aparine), corn (Zea mays), crabgrass, large (large crabgrass, Digitaria sanguinalis), foxtail, giant, (giant foxtail, Setaria faberii), johnsongrass (Sorghum halepense), lambsquarters (Chenopodium album), morningglory (Ipomoea coccinea), nutsedge, yellow (yellow nutsedge, Cyperus esculentus), pigweed (Amaranthus retroflexus), ragweed (common ragweed, Ambrosia elatior), soybean (Glycine max), barnyardgrass (Echinochloa crus-galli), oilseed rape (Brassica napus), waterhemp (common waterhemp, Amaranthus rudis), and velvetleaf (Abutilon theophrasti) were planted into a blend of loam soil and sand and treated preemergence with test chemicals formulated in a non-phytotoxic solvent mixture which included a surfactant. At the same time, plants selected from these crop and weed species and also chickweed (common chickweed, Stellaria media), oat, wild (wild oat, Avena fatua), and kochia (Kochia scoparia), were planted in pots containing Sunshine Redi-Earth® planting medium comprising spaghnum peat moss, vermiculite, starter nutrients and dolomitic limestone and treated with postemergence applications of test chemicals formulated in the same manner. Plants ranged in height from 2 to 18 cm (1- to 4-leaf stage) for postemergence treatments. […] A dash (-) response means no test result.

blackgrass = experiment: Test C preemergence; assay type: in vivo, Alopecurus myosuroides; settings: for Plant response rating (scale of 0 to 100 where 0 is no effect and 100 is complete control): Blackgrass, preemergence; for Blackgrass plant response rating (0 to 100): Preemergence, visual rating after 13 to 15 d
Description: as §1

crabgrass, large = experiment: Test C preemergence; assay type: in vivo, Digitaria sanguinalis; settings: for Plant response rating (scale of 0 to 100 where 0 is no effect and 100 is complete control): Crabgrass, Large, preemergence; for Crabgrass, Large plant response rating (0 to 100): Preemergence, visual rating after 13 to 15 d
Description: as §1

corn = experiment: Test C preemergence; assay type: in vivo, Zea mays; settings: for Plant response rating (scale of 0 to 100 where 0 is no effect and 100 is complete control): Corn, preemergence; for Corn plant response rating (0 to 100): Preemergence, visual rating after 13 to 15 d
Description: as §1

pigweed = experiment: Test C preemergence; assay type: in vivo, Amaranthus retroflexus; settings: for Plant response rating (scale of 0 to 100 where 0 is no effect and 100 is complete control): Pigweed, preemergence; for Pigweed plant response rating (0 to 100): Preemergence, visual rating after 13 to 15 d
Description: as §1

ragweed = experiment: Test A postemergence; assay type: in vivo, Ambrosia elatior; settings: 0 to 100 scale (0 no effect, 100 complete control), approx. 10 d
Description: (§2) Seeds of plant species selected from barnyardgrass (Echinochloa crus-galli), crabgrass, large (large crabgrass, Digitaria sanguinalis), kochia (Kochia scoparia), ragweed (common ragweed, Ambrosia elatior), foxtail, giant (giant foxtail, Setaria faberii), morningglory (Ipomoea spp.), pigweed (Amaranthus retroflexus), velvetleaf (Abutilon theophrasti), ryegrass, Italian (Italian ryegrass, Lolium multiflorum), wheat (Triticum aestivum), and corn (Zea mays) were planted into a blend of loam soil and sand and treated preemergence with a directed soil spray using test chemicals formulated in a non-phytotoxic solvent mixture which included a surfactant.
(§3) At the same time, plants selected from these crop and weed species and also blackgrass (Alopecurus myosuroides), and galium (catchweed bedstraw, Galium aparine), were planted in pots containing the same blend of loam soil and sand and treated with postemergence applications of test chemicals formulated in the same manner. Plants ranged in height from 2 to 10 cm and were in the one- to two-leaf stage for the postemergence treatment. Treated plants and untreated controls were maintained in a greenhouse for approximately 10 d, after which time all treated plants were compared to untreated controls and visually evaluated for injury. Plant response ratings, summarized in Table A, are based on a 0 to 100 scale where 0 is no effect and 100 is complete control. A dash (-) response means no test result.

kochia = experiment: Test A preemergence; assay type: in vivo, Kochia scoparia; settings: 0 to 100 scale (0 no effect, 100 complete control)
Description: as §2, §3

Compound	Plant response rating (scale of 0 to 100 where 0 is no effect and 100 is complete control) (lambsquarters; 125 g ai/ha)	Plant response rating (scale of 0 to 100 where 0 is no effect and 100 is complete control) (lambsquarters; 250 g ai/ha)	Lambsquarters plant response rating (0 to 100) (lambsquarters; 31 g ai/ha)	Lambsquarters plant response rating (0 to 100) (lambsquarters; 62 g ai/ha)	Plant response rating (scale of 0 to 100 where 0 is no effect and 100 is complete control) (blackgrass; 125 g ai/ha)	Plant response rating (scale of 0 to 100 where 0 is no effect and 100 is complete control) (blackgrass; 250 g ai/ha)	Blackgrass plant response rating (0 to 100) (blackgrass; 31 g ai/ha)	Blackgrass plant response rating (0 to 100) (blackgrass; 62 g ai/ha)	Plant response rating (scale of 0 to 100 where 0 is no effect and 100 is complete control) (crabgrass, large; 125 g ai/ha)	Plant response rating (scale of 0 to 100 where 0 is no effect and 100 is complete control) (crabgrass, large; 250 g ai/ha)	Crabgrass, Large plant response rating (0 to 100) (crabgrass, large; 31 g ai/ha)	Crabgrass, Large plant response rating (0 to 100) (crabgrass, large; 62 g ai/ha)	Plant response rating (scale of 0 to 100 where 0 is no effect and 100 is complete control) (corn; 125 g ai/ha)	Plant response rating (scale of 0 to 100 where 0 is no effect and 100 is complete control) (corn; 250 g ai/ha)	Corn plant response rating (0 to 100) (corn; 31 g ai/ha)	Corn plant response rating (0 to 100) (corn; 62 g ai/ha)	Plant response rating (scale of 0 to 100 where 0 is no effect and 100 is complete control) (pigweed; 125 g ai/ha)	Plant response rating (scale of 0 to 100 where 0 is no effect and 100 is complete control) (pigweed; 250 g ai/ha)	Plant response rating, Ragweed (ragweed; 125 g ai/ha)	Plant response rating, Kochia (kochia; 125 g ai/ha)	also measured
CCCc1nc(-c2ccc(F)cc2)nn1Cc1ccnc(C(F)(F)F)c1 [Compound 6, 4-[[3-(4-fluorophenyl)-5-propyl-1H-1,2,4-triazol-1-yl]methyl]-2-(trifluoromethyl)pyridine]	98	98	98	98	95	95	70	90	100	100	100	100	50	50	15	35	100	100	–	–	Pigweed plant response rating (0 to 100) (pigweed; 31 g ai/ha): 100; Pigweed plant response rating (0 to 100) (pigweed; 62 g ai/ha): 100
COc1nc(-c2ccc(F)cc2)nn1Cc1ccnc(C(F)(F)F)c1 [Compound 9, 4-[[3-(4-fluorophenyl)-5-methoxy-1H-1,2,4-triazol-1-yl]methyl]-2-(trifluoromethyl)pyridine]	98	98	70	85	90	90	5	85	100	100	95	100	25	55	0	5	100	98	–	–	Pigweed plant response rating (0 to 100) (pigweed; 31 g ai/ha): 100; Pigweed plant response rating (0 to 100) (pigweed; 62 g ai/ha): 100
COc1nc(-c2ccc(C(F)(F)F)cc2)nn1Cc1ccnc(C(F)(F)F)c1 [Compound 25]	–	–	–	–	–	–	–	–	–	–	–	–	–	–	–	–	–	–	30	80	Plant response rating, Ragweed (ragweed; 31 g ai/ha): 20; Plant response rating, Kochia (kochia; 31 g ai/ha): 20
CCOc1nc(-c2ccc(Cl)cc2)nn1Cc1ccnc(C(F)(F)F)c1 [Compound 26]	–	–	–	–	–	–	–	–	–	–	–	–	–	–	–	–	–	–	50	90	Plant response rating, Ragweed (ragweed; 31 g ai/ha): 30; Plant response rating, Kochia (kochia; 31 g ai/ha): 60
COc1nc(-c2ccccc2)nn1Cc1ccnc(C(F)(F)F)c1 [Compound 32]	80	90	60	60	10	90	0	0	100	98	65	90	5	20	0	0	100	100	30	100	Plant response rating, Ragweed (ragweed; 500 g ai/ha): 70; Pigweed plant response rating (0 to 100) (pigweed; 31 g ai/ha): 100; Pigweed plant response rating (0 to 100) (pigweed; 62 g ai/ha): 100; Plant response rating, Kochia (kochia; 500 g ai/ha, approx. 10 d): 100
CCCOc1nc(-c2ccccc2)nn1Cc1ccnc(C(F)(F)F)c1 [Compound 33]	–	–	–	–	–	–	–	–	–	–	–	–	–	–	–	–	–	–	30	60	Plant response rating, Ragweed (ragweed; 500 g ai/ha): 50; Plant response rating, Kochia (kochia; 500 g ai/ha, approx. 10 d): 90

— patent US10681909B2, “Herbicidal triazoles” (FMC Corporation, priority 2014, dated 2020)
